{"source": "patent US20150224066A1", "about": "(priority 2012, published 2015)", "key": {"[1]": {"tested_on": "B. anthracis Sterne", "format": "cell-based, Bacillus anthracis", "conditions": "for antimicrobial activity / growth inhibition: 24 h incubation; for bactericidal concentration / bacteriostatic concentration: 24 h"}, "[2]": {"tested_on": "TSST-1 production by S. aureus MNPE", "format": "cell-based, Staphylococcus aureus"}, "[3]": {"tested_on": "TSST-1 production by S. aureus CDC587", "format": "cell-based, Staphylococcus aureus"}, "[4]": {"tested_on": "Streptococcus pyogenes MNWA", "format": "cell-based"}, "[5]": {"tested_on": "TSST-1 production by S. aureus MN8", "format": "cell-based, Staphylococcus aureus"}, "[6]": {"tested_on": "S. aureus MN8", "format": "cell-based, Staphylococcus aureus"}, "[7]": {"tested_on": "Streptococcus agalactiae MNSI", "format": "cell-based"}, "[8]": {"tested_on": "S. aureus MN8", "format": "cell-based, Staphylococcus aureus", "remark": "listed apart in the source"}, "[9]": {"tested_on": "S. aureus MN8", "format": "cell-based, Staphylococcus aureus", "remark": "listed apart in the source"}, "[10]": {"tested_on": "S. aureus", "format": "cell-based, Staphylococcus aureus"}, "[11]": {"tested_on": "S. aureus CDC587", "format": "cell-based, Staphylococcus aureus"}, "[12]": {"tested_on": "S. aureus MNPE", "format": "cell-based, Staphylococcus aureus"}}, "note": "Where “and” joins values, the source holds several entries; their conditions need not be identical. Equal entries are not always repeated. Entries after “also recorded” stand apart in the source; their conditions may differ. Where two headings read alike, the source gives them in different places."}
{"smiles": "COC1=C(OC)C(=O)C(C/C=C(\\C)CC/C=C(\\C)CC/C=C(\\C)CC/C=C(\\C)CC/C=C(\\C)CC/C=C(\\C)CC/C=C(\\C)CC/C=C(\\C)CC/C=C(\\C)CCC=C(C)C)=C(C)C1=O", "note": "[coenzyme Q10, reference compound]", "values": [{"measurement": "antimicrobial activity / growth inhibition", "setting": "[1]", "value": "no antimicrobial activity"}, {"measurement": "inhibition of TSST-1 production", "setting": "[2]", "value": "did not inhibit"}, {"measurement": "inhibition of TSST-1 production", "setting": "[3]", "value": "did not inhibit"}, {"measurement": "antimicrobial activity / growth inhibition", "setting": "[4]", "value": "lacked antimicrobial activity"}, {"measurement": "inhibition of TSST-1 production", "setting": "[5]", "value": "did not inhibit"}, {"measurement": "antimicrobial activity / growth inhibition", "setting": "[6]", "value": "no antimicrobial activity"}, {"measurement": "antimicrobial activity / growth inhibition", "setting": "[7]", "value": "lacked antimicrobial activity"}]}
{"smiles": "COC1=C(OC)C(=O)C(C/C=C(\\C)CCC=C(C)C)=C(C)C1=O", "note": "[coenzyme Q2]", "values": [{"measurement": "bactericidal concentration", "setting": "[1]", "value": "≥ 25", "unit": "µg/mL"}, {"measurement": "bacteriostatic concentration", "setting": "[1]", "value": 12.5, "unit": "µg/mL"}, {"measurement": "bactericidal concentration (≧3 log drop in CFUs/ml)", "setting": "[6]", "value": 50, "unit": "μg/ml"}, {"measurement": "bacteriostatic concentration (<3 log drop in CFUs/ml)", "setting": "[6]", "value": 25, "unit": "μg/ml"}]}
{"smiles": "CC1=C(C/C=C(\\C)CCC[C@H](C)CCC[C@H](C)CCCC(C)C)C(=O)c2ccccc2C1=O", "note": "[phylloquinone, reference compound]", "values": [{"measurement": "antimicrobial activity / growth inhibition", "setting": "[1]", "value": "no antimicrobial activity"}, {"measurement": "inhibition of TSST-1 production", "setting": "[2]", "value": "did not inhibit"}, {"measurement": "inhibition of TSST-1 production", "setting": "[3]", "value": "did not inhibit"}, {"measurement": "antimicrobial activity / growth inhibition", "setting": "[4]", "value": "no antimicrobial activity"}, {"measurement": "inhibition of TSST-1 production", "setting": "[5]", "value": "did not inhibit"}, {"measurement": "antimicrobial activity / growth inhibition", "setting": "[6]", "value": "no antimicrobial activity"}, {"measurement": "antimicrobial activity / growth inhibition", "setting": "[7]", "value": "no antimicrobial activity"}]}
{"smiles": "CCCCCCCCCCCC(=O)OCC(O)CO", "note": "(stereo not drawn) [GML, glycerol monolaurate]", "values": [{"measurement": "growth inhibition of S. aureus MN8", "setting": "[8]", "value": "did not inhibit; also recorded: not inhibitory"}]}
{"smiles": "COC1=C(OC)C(=O)C(C/C=C(\\C)CC/C=C(\\C)CCC=C(C)C)=C(C)C1=O", "note": "[coenzyme Q3]", "values": [{"measurement": "bactericidal concentration", "setting": "[1]", "value": 50, "unit": "µg/mL"}, {"measurement": "bacteriostatic concentration", "setting": "[1]", "value": 25, "unit": "µg/mL"}, {"measurement": "bactericidal concentration (≧3 log drop in CFUs/ml)", "setting": "[6]", "value": 50, "unit": "μg/ml"}, {"measurement": "bacteriostatic concentration (<3 log drop in CFUs/ml)", "setting": "[6]", "value": 25, "unit": "μg/ml"}]}
{"smiles": "CC1=CC(=O)c2ccccc2C1=O", "note": "[menadione]", "values": [{"measurement": "bactericidal concentration", "setting": "[9]", "value": "≥ 50", "unit": "µg/mL"}, {"measurement": "concentration of complete killing", "setting": "[9]", "value": 200, "unit": "µg/mL"}, {"measurement": "difference in bactericidal concentration, anaerobic versus aerobic", "setting": "[9]", "value": 4, "unit": "fold"}, {"measurement": "difference in concentration of complete killing, anaerobic versus aerobic", "setting": "[9]", "value": 16, "unit": "fold"}, {"measurement": "growth inhibition when cultured aerobically compared to anaerobically", "setting": "[9]", "value": "more effective"}, {"measurement": "bactericidal concentration", "setting": "[1]", "value": "≥ 25", "unit": "µg/mL"}, {"measurement": "bacteriostatic concentration", "setting": "[1]", "value": "6.25 µg/mL and 12.5 µg/mL"}, {"measurement": "antimicrobial activity / growth inhibition", "setting": "[1]", "value": "strong antimicrobial activity"}, {"measurement": "antimicrobial activity / growth inhibition", "setting": "[1]; listed as Menadione", "value": "inhibits the growth"}, {"measurement": "generation of resistant mutants", "setting": "[10]", "value": "failed to generate resistant mutants"}, {"measurement": "antimicrobial activity", "setting": "[11]", "value": "comparably bacteriostatic and bactericidal"}, {"measurement": "antimicrobial activity / growth inhibition", "setting": "[4]", "value": "inhibits the growth; also recorded: strong antimicrobial activity"}, {"measurement": "bactericidal concentration", "setting": "[4]", "value": "50 µg/mL and 100 µg/mL"}, {"measurement": "bacteriostatic concentration", "setting": "[4]", "value": 25, "unit": "µg/mL"}, {"measurement": "antimicrobial activity", "setting": "[12]", "value": "comparably bacteriostatic and bactericidal"}, {"measurement": "concentration at which TSST-1 production was completely inhibited (no detectable TSST-1)", "setting": "[5]", "value": "≥ 3.1", "unit": "µg/mL"}, {"measurement": "doses that failed to inhibit TSST-1 production", "setting": "[5]", "value": "< 3.1", "unit": "µg/mL"}, {"measurement": "antimicrobial activity / growth inhibition", "setting": "[6]", "value": "inhibits the growth; also recorded: strong antimicrobial activity"}, {"measurement": "antimicrobial activity / growth inhibition", "setting": "[7]", "value": "inhibits the growth; also recorded: strong antimicrobial activity"}, {"measurement": "bacteriostatic concentration", "setting": "[7]", "value": "6.25 mg/mL and 12.5 mg/mL"}]}
{"smiles": "O=C1C=CC(=O)c2ccccc21", "note": "[1,4-naphthoquinone]", "values": [{"measurement": "fold less active than menadione", "setting": "[1]", "value": "approximately 2 fold"}, {"measurement": "antimicrobial activity / growth inhibition", "setting": "[1]", "value": "strong antimicrobial activity"}, {"measurement": "antimicrobial activity / growth inhibition", "setting": "[4]", "value": "strong antimicrobial activity"}, {"measurement": "fold less active than menadione", "setting": "[4]", "value": "approximately 2 fold"}, {"measurement": "antimicrobial activity / growth inhibition", "setting": "[6]", "value": "strong antimicrobial activity"}, {"measurement": "fold less active than menadione", "setting": "[6]", "value": "approximately 2 fold"}, {"measurement": "antimicrobial activity / growth inhibition", "setting": "[7]", "value": "strong antimicrobial activity"}, {"measurement": "fold less active than menadione", "setting": "[7]", "value": "approximately 2 fold"}]}
